Measured values published in article PMC5529531, “Engineered isopeptide bond stabilized fibrin inspired nanoscale peptide based sealants for efficient blood clotting” (Scientific Reports, 2017).
“And” between values parts separate entries of the source, which are not always exact repeats. Equal entries are not always repeated.

System: platelet-free plasma
Assay: Thrombin clotting time experiment with platelet-free plasma
Conditions: 0.35 mL chicken platelet-free plasma at 37 °C + 0.15 mL sealant solution (peptide 1.5 mM in 25 mM PBS pH 7.4, 5 mM CaCl2, 10 µL TG 7 U/mL) or thrombin-calcium reagent; mean ± SD of two independent experiments
Procedure: Plasma was collected by centrifuging whole non-coagulated chicken blood (4500 rpm, 10 min, 4 °C). Thrombin clotting time (Figure S19) experiment was performed by incubating 0.35 mL platelet-free plasma, in a 1.5 mL microcentrifuge tube at 37 °C for 10 min, followed by the addition of the thrombin-calcium reagent, 0.15 mL, maintained at room temperature. The period of clot formation was noted. The same batch of platelet-free plasma was used to determine sealant clotting time. Platelet-free plasma 0.35 mL, was taken in a 1.5 mL microcentrifuge tube incubated at 37 °C followed by addition of 0.15 mL sealant solution. Sealant was prepared by dissolving each peptide in 25 mM PBS buffer, pH 7.4 with 5 mM CaCl2 where final conc. of the peptide was 1.5 mM followed by the addition of 10 µL TG (7 U/1 mL) soln. The period of clot formation was noted. The results are represented as mean ± SD of two independent experiments.
Figure S19. Determination of clotting time of sealants with plasma by thrombin clotting time method. The clotting time in presence of thrombin, sealants 1, 2 and 3 are 32±2, 35±1, 25±1 and 28±2 secs, respectively.

Substance: thrombin: thrombin (bovine plasma), used as thrombin-calcium reagent
- clotting time (thrombin clotting time experiment): 32±2 secs and ~ 32 ± 2 secs
